Among the data in a melting point compilation (Tetko et al.; mined from patent text by program, amines drawn as free bases though some values may be those of a salt) are melting point values, retold here.

Compound `O=C(O)[C@H]1C=C[C@H](c2ccccc2)n2c(=O)n(CCS)c(=O)n21` (relative stereo) returned a melting point of 153 to 154 °C.

Compound `CC(C)(O)c1cccc(Oc2cccc(-c3c(Cc4ccccc4)cnc4c(C(F)(F)F)cccc34)c2)c1` registered a melting point of under 80 °C.

On to `OCc1nccn1CCc1ccccc1`, for which the melting point was 75.4 °C.

With `O=C1NCCc2ccc(OCCCCN3CCN(c4cccc(Cl)c4Cl)CC3)cc2N1`, the melting point was in the range of 185 to 186 °C.

`CSc1ccc(OC(C)c2ccnc3ncnn23)cc1` (configuration not stated) had a melting point of 84 to 86 °C.

The compound `COc1ccc(N2CCN(c3c(C)c(C)c4c(c3C)C(O)(c3ccc(OC)cc3)C(C)(C)O4)CC2)cc1` (configuration not stated) came in with a melting point of 157 to 159 °C.

`N#Cc1cc(N)ccc1OC1CCCCC1`: the melting point was found to be 59 °C.

In turn, `CCS(=O)(=O)c1ccc(C(=O)NCc2ccc3c(c2)C(=O)N(C2CCC(=O)NC2=O)C3=O)cc1` (configuration not stated) yielded a melting point of 182 to 184 °C.

Consider `CCOC(=O)Cc1ncn(C(c2ccccc2)(c2ccccc2)c2ccccc2)n1`, for which the melting point is 117 to 119 °C.

As to `NC(=O)c1c(Cl)c(-c2ccccc2)n2c1CN(S(=O)(=O)c1ccc(-c3ccccn3)s1)CC2`, the melting point fell in the range of 222 to 224 °C.

`CC(C)(C)NS(=O)(=O)c1ccccc1-c1ccccn1`: the melting point was 147 to 150 °C.

In the case of `CCN1CCN(c2cccc3ccc(NC(=O)c4ccc(Cl)cc4)cc23)CC1`, the melting point lay in the range of 173 to 174 °C.

`CN(C(=S)N[C@@H](Cc1ccc(NC(=O)c2c(Cl)cncc2Cl)cc1)C(=O)O)c1ccccc1Cc1ccccc1` came in with a melting point of 198 °C.

The compound `O=C(O)/C=C/c1ccc(-c2ccc(O)c(C34CC5CC(CC(C5)C3)C4)c2)c(Cl)c1` gave a melting point of 257 to 259 °C.

In the case of `CC1(c2ccc(OCc3ccccc3)c(C3CO3)c2)OCCO1` (configuration not stated), the melting point fell in the range of 121 to 123 °C.

`CC(=O)SCC(Cc1ccccc1)C(=O)Nc1cc(C(=O)O)ccc1Cl` (configuration not stated) gave a melting point of 204 to 206 °C.

In turn, `O=C(Cl)N(c1ccc(F)cc1)c1ccc(F)cc1` returned a melting point of 53 to 54 °C.

Compound `COc1cccc(C(=O)c2ccc(F)cc2F)c1` returned a melting point of 50 to 52 °C.

For `Cc1cccc2c1C(=O)c1c-2csc1N`, the melting point fell in the range of 196 to 198 °C.

The compound `CCOC(=O)COc1ccc(C(=O)Nc2ccccc2Sc2ccc(-c3nnn[nH]3)cc2)cc1` came in with a melting point of 148 to 149 °C.

Compound `Cc1nc(C)c(Cl)c(NCc2ccc(OCc3ccccc3)cn2)n1` returned a melting point of 130 to 131 °C.

`Cc1nc(-n2cc(-c3ccccn3)nn2)sc1C(=O)NCc1ccccc1`: the melting point was 184 to 187 °C.

Consider `COC1=C(OC)C(=O)C2=C(CCC(CCO)CC2)C1=O`, for which the melting point was 63 to 64 °C.

`C=CCOc1ccc2c(C)cc(=O)oc2c1C(=O)C=Cc1ccc(Cl)cc1` had a melting point of 153 to 155 °C.

`CC(=O)N(C)c1ccnc2c(NC(=O)c3c(Cl)cccc3Cl)cccc12` registered a melting point of 227 to 230 °C.

Take `COc1ccc2[nH]cc(CCNC(=O)C(F)(F)F)c2c1`: the melting point is 135 to 136 °C.

The compound `O=C1CCC(N2Cc3c(OCc4ccccc4CN4CCOCC4)cccc3C2=O)C(=O)N1` (configuration not stated) returned a melting point of 188 to 190 °C.

`Oc1ccccc1-c1cc(-c2ccc3c(c2)OCO3)cc(-c2ccc3ccccc3c2)n1` had a melting point of 195 to 196 °C.

In the case of `CC1CCc2c(N3CCN(Cc4ccc(N)cc4)CC3)c(F)cc3c(=O)c(C(=O)O)cn1c23` (configuration not stated), the melting point is 216 to 218 °C.

For the compound `COc1ccc(-n2cc(/C=C(\C#N)C(=O)NS(C)(=O)=O)c(-c3ccc(Cl)c(F)c3)n2)cc1Cl`, the melting point is 280 to 282 °C.

With `O=c1c2c(n(-c3ccccc3)c3ncccc13)CCC2`, the melting point fell in the range of 235 to 237 °C.

For the compound `FC(F)(F)c1cccc(-c2nccc3nncn23)c1`, the melting point lay within 145 to 146 °C.

`O=C(NOCC(O)CO)c1ccc(F)c(F)c1Nc1ccc(I)cc1F` (configuration not stated): the melting point was in the range of 117 to 118 °C.

The compound `CON1CCn2c(OC(=O)C(C)(C)C)c(-c3c(C)cc(C)cc3C)c(=O)n2CC1` showed a melting point of 147 to 148 °C.

`CCNC1Cc2c[nH]c3ccc(OC)c(c23)C1(C)O` (configuration not stated) showed a melting point of 185 to 187 °C.

Turning to `CCCc1c(OC(C(=O)OCC)c2ccc(OC)cc2)ccc(C(C)=O)c1O` (configuration not stated), the melting point lay in the range of 87 to 89 °C.

`Nc1nccc(N2CCc3ccccc32)n1` displayed a melting point of 177 to 179 °C.

`CCOC(=O)Cn1c(Br)c(Br)c(C#N)c1Br`: the melting point fell in the range of 140 to 143 °C.

As for `O=C1c2ccccc2C(=O)N1CCc1ncc(C(F)(F)F)cc1Cl`, the melting point was in the range of 147 to 148 °C.

Compound `O=C1c2cccc3cc4ccccc4c(c23)C(=O)N1CCN1CCCN(CCN2C(=O)c3cccc4cc5ccccc5c(c34)C2=O)C1` had a melting point of 222 °C.

In the case of `COC(=O)c1ccc(OCCN)cc1`, the melting point is 53 to 55.5 °C.

For the compound `CCOC(=O)C1C=Nc2c(ccc(F)c2F)C1=O` (configuration not stated), the melting point came to 270 °C.

Compound `CCCCn1c2c(c3ccccc3c1=O)C(=O)c1cc3c(cc1-2)OCO3` came in with a melting point of 200 to 201 °C.

Take `CCCCC(=O)Nc1ccc(Cl)c(-n2nc(CCCC)c(Cc3ccc(-c4ccccc4S(=O)(=O)NC(=O)c4ccccc4Cl)cc3F)c2C#N)c1`: the melting point is over 95 °C.

The compound `Cc1cc(Nc2ccc(F)cc2)nc(Nc2ccc(S(=O)(=O)N(C)C3CCN(Cc4nccs4)CC3)cc2)n1` displayed a melting point of 220 °C.

Turning to `CC(=O)c1ccccc1Cc1ccccc1`, the melting point was 42 to 43 °C.

`O=c1[nH]c2cc(C(F)(F)F)c([N+](=O)[O-])cc2n1-c1cc(Cl)cc(Br)c1O` returned a melting point of 262 to 264 °C.

For the compound `CCN(CC)c1ccc(NC(=O)c2cnn(-c3ccc(F)cc3)c2C)cc1C#N`, the melting point fell in the range of 135 to 136 °C.

Turning to `CCCCOCCOc1ccc(-c2ccc3c(c2)C=C(C(=O)O)CCN3c2csc(C)n2)cc1`, the melting point was in the range of 155 to 158 °C.

In turn, `Cc1cccc(C2(O)CCN(C)CC2)c1` showed a melting point of 86 to 90 °C.

With `CC(C)Oc1ccc(C(=O)n2nc(Nc3cccc(N4CCCCC4)c3)nc2N)cc1`, the melting point was 121 to 124 °C.

`O=C(O)Cc1nn(Cc2nc3cc(O)cc(O)c3s2)c(=O)c2ccccc12`: the melting point amounted to 184 °C.

Compound `COC=NC(C#N)=C(N)C#N` showed a melting point of 138 to 139 °C.

In turn, `C[C@H]1[C@H](O)CN1c1c(F)cc2c(=O)c(C(=O)O)cn(C3CC3)c2c1F` (relative stereo) displayed a melting point of 215 to 218 °C.

Turning to `Cc1ccc(C2OC(=O)N(C(=O)NN3CCOCC3)C2C)cc1` (configuration not stated), the melting point lay in the range of 124 to 125 °C.

Compound `CC(=N)NN(C)C(=O)OC(C)(C)C` showed a melting point of 187 to 189 °C.

As to `CCNCCCOc1ccc(-c2ccc(C(=O)OCC)cc2)cc1-c1ccc2c(c1)C(C)(C)CCC2(C)C`, the melting point was 148 °C.

In turn, `COc1ccc(C(=O)c2cccc3c2CCC3C(N)=O)cc1` (configuration not stated) yielded a melting point of 164 to 166 °C.

On to `CCOCC(O)COc1ccc(NC(=O)CCSC)cc1` (configuration not stated), for which the melting point lay in the range of 79 to 81 °C.

Consider `Cc1nc2c(c(=O)[nH]1)CC(C)C2` (configuration not stated), for which the melting point lay in the range of 174 to 175 °C.

For `O=C1CCCCc2ccccc21`, the melting point lay within 79 to 84 °C.

For the compound `Cc1nccn1-c1cccc(OS(N)(=O)=O)c1`, the melting point lay within 197 to 200 °C.

Turning to `O=C(c1ccccc1)c1ccc(Cl)nc1`, the melting point fell in the range of 39 to 40 °C.

Regarding `O=c1[nH]cnc2c(Br)c(Cl)sc12`, the melting point is over 280 °C.

As to `CC(C)c1ccc(NC(=O)c2ccc(C(=O)O)nc2)cc1C(C)C`, the melting point was 199 to 200 °C.

On to `Cc1ccc(S(=O)(=O)Nc2cccc(Sc3ccccc3)n2)cc1`, for which the melting point is 128 to 130 °C.

`CC(C)(Oc1ccccc1S(C)(=O)=O)C(=O)O`: the melting point was 114 to 116 °C.

With `COc1cc2cc3c(=O)nc[nH]c3nc2cc1OC`, the melting point lay in the range of 311 to 312 °C.

On to `Cc1cccc(NC(=O)NC2N=C(CN3CC4CCC(CC4)C3)c3cccc(C)c3N(C)C2=O)c1` (configuration not stated), for which the melting point was 146 to 149 °C.

For the compound `CCC(=O)N(C)c1nc(Cl)c([N+](=O)[O-])s1`, the melting point was 132 to 133 °C.

`OC1C=CC2COC1O2` (configuration not stated) had a melting point of 65.6 to 66.4 °C.

Turning to `CN(C)CC(C(O)c1ccc([N+](=O)[O-])cc1)N1CCC(Cc2ccccc2)CC1` (configuration not stated), the melting point lay within 132 to 135 °C.

In turn, `O=C(O)c1cccc(OCCCCCCc2cccc(OCc3ccccc3)c2OCc2ccccc2)c1` came in with a melting point of 72 °C.

For the compound `CCCC1(C(=O)NCc2ccc(N3Cc4ccccc4C3=O)cc2)c2ccccc2-c2ccccc21`, the melting point lay within 96 to 99 °C.

`O=C(c1ccccc1)N1CCC(C(Nc2ccc(F)cc2)c2ccc(F)cc2)CC1` (configuration not stated) displayed a melting point of 157 to 158 °C.

For the compound `COc1c(C(=O)O)oc2c3ccccc3n(-c3ccccc3)c12`, the melting point was 154 to 155 °C.

The compound `CC(C)(C)OC(=O)N1CCC(c2ccc(N3C[C@H](COS(C)(=O)=O)OC3=O)cc2F)CC1` registered a melting point of 163 to 165 °C.

`O=C(OCc1ccccc1)C1CCCc2c1c1ccccc1n2C(=O)c1ccc(Cl)cc1` (configuration not stated) came in with a melting point of 123 to 124 °C.

The compound `COc1ccc(N(C(=O)CN2C(=O)C(Cc3n[nH]c4ccccc34)C(=O)N(c3cccnc3)c3ccccc32)C(C)C)cc1` (single isomer, unassigned; (+)) yielded a melting point of 214 to 215 °C.

In the case of `COc1ccc(S(=O)(=O)C2(C(=O)NO)CCN(Cc3ccc(-c4ccccc4)cc3)CC2)cc1`, the melting point was determined as 168 °C.

For the compound `CCCNc1nc(=O)n(CC2CC2)c2nc(C(C)C)[nH]c12`, the melting point was 208 to 210 °C.

The compound `CN1C(=O)C(C)(C)N=C(c2ccccc2Cl)c2c1ccc(N)c2Cl` had a melting point of 195 to 196 °C.

`N#CCC(C#N)=NNc1c(Cl)cc(C(F)(F)F)cc1Cl` registered a melting point of 80 to 82 °C.

Consider `O=C1Cc2c(OCCNCc3ccccc3)ccc(Cl)c2N1`, for which the melting point fell in the range of 161 to 163 °C.

With `Cn1c(=O)c(-c2ccc(Cl)cc2Cl)cc2c3cc(-c4cc(N)n[nH]4)ccc3n(C)c21`, the melting point was 284 to 286 °C.

Turning to `Fc1ccc2sc(CCl)nc2c1`, the melting point is 99 to 101 °C.

The compound `O=C(NCCO)c1cnc(NCCO)cc1Nc1ccc(I)cc1F` registered a melting point of over 250 °C.
